In PubChem BioAssay (NCI):
Several values for one entry are separate records, joined by “and”; a condition that tells them apart may be missing. Identical values can stand only once.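 A five-concentration, 48-hour dose response in 96-well plates underlies each endpoint, interpolated linearly between surrounding concentrations. GI50 marks 50% less growth. At the TGI there is no net growth.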

Tests used:
Assay in all cases: inhibition of tumour cell growth, NCI panel, 48 h
[1] = tested on: A498 renal
[2] = tested on: A549 NSCLC
[3] = tested on: ACHN renal
[4] = tested on: CCRF-CEM leukemia
[5] = tested on: COLO 205 colon
[6] = tested on: DLD-1 colon
[7] = tested on: DMS 114 small cell lung
[8] = tested on: DMS 273 small cell lung
[9] = tested on: EKVX NSCLC
[10] = tested on: HCC-2998 colon
[11] = tested on: HCT-116 colon
[12] = tested on: HCT-15 colon
[13] = tested on: HL-60(TB) leukemia
[14] = tested on: HOP-18 NSCLC
[15] = tested on: HOP-92 NSCLC
[16] = tested on: HT29 colon
[17] = tested on: IGROV1 ovarian
[18] = tested on: K-562 leukemia
[19] = tested on: KM12 colon
[20] = tested on: KM20L2 colon
[21] = tested on: LOX IMVI melanoma
[22] = tested on: LXFL 529 NSCLC
[23] = tested on: M14 melanoma
[24] = tested on: M19-MEL melanoma
[25] = tested on: MALME-3M melanoma
[26] = tested on: MOLT-4 leukemia
[27] = tested on: NCI-H23 lung
[28] = tested on: NCI-H460 lung
[29] = tested on: NCI-H522 lung
[30] = tested on: OVCAR-3 ovarian
[31] = tested on: OVCAR-5 ovarian
[32] = tested on: OVCAR-8 ovarian
[33] = tested on: RXF 393 renal
[34] = tested on: SF-268 CNS
[35] = tested on: SF-295 CNS
[36] = tested on: SF-539 CNS
[37] = tested on: SK-MEL-2 melanoma
[38] = tested on: SK-MEL-28 melanoma
[39] = tested on: SK-MEL-5 melanoma
[40] = tested on: SK-OV-3 ovarian
[41] = tested on: SN12C renal
[42] = tested on: SNB-19 CNS
[43] = tested on: SNB-75 CNS
[44] = tested on: SNB-78 CNS
[45] = tested on: SR leukemia
[46] = tested on: SW-620 colon
[47] = tested on: TK-10 renal
[48] = tested on: U251 CNS
[49] = tested on: UACC-257 melanoma
[50] = tested on: UACC-62 melanoma
[51] = tested on: UO-31 renal
[52] = tested on: XF 498 CNS
[53] = tested on: 786-0 renal
[54] = tested on: CAKI-1 renal
[55] = tested on: HOP-62 NSCLC
[56] = tested on: NCI-H226 lung
[57] = tested on: OVCAR-4 ovarian
[58] = tested on: RPMI-8226 leukemia
[59] = tested on: BT-549 breast
[60] = tested on: DU-145 prostate
[61] = tested on: HS 578T breast
[62] = tested on: MCF7 breast
[63] = tested on: MDA-MB-231 breast
[64] = tested on: MDA-MB-435
[65] = tested on: MDA-N
[66] = tested on: NCI/ADR-RES ovarian
[67] = tested on: PC-3 prostate
[68] = tested on: T-47D breast

In the case of `COC[C@@H](Cc1ccc(OC)c(OC)c1)[C@@H](COC)Cc1ccc(OC)c(OC)c1`, the TGI [1] is reported as > 100 µM, the TGI [2] is reported as > 100 µM and the TGI [3] is reported as > 100 µM. The TGI [4] was > 100 µM, the TGI [5] was > 100 µM and the TGI [6] was > 100 µM. The TGI [7] was > 100 µM, the TGI [8] was > 100 µM and the TGI [9] was > 100 µM. The TGI [10] was > 100 µM, the TGI [11] was > 100 µM and the TGI [12] was > 100 µM. For the same compound, the TGI [13] was > 100 µM, the TGI [14] was > 100 µM and the TGI [15] was > 100 µM. The TGI [16] was > 100 µM, the TGI [17] was > 100 µM and the TGI [18] was > 100 µM. The TGI [19] was > 100 µM, the TGI [20] was > 100 µM and the TGI [21] was > 100 µM. For the same compound, the TGI [22] was > 100 µM, the TGI [23] was > 100 µM and the TGI [24] was > 100 µM. For the same compound, the TGI [25] was > 100 µM, the TGI [26] was > 100 µM and the TGI [27] was > 100 µM. The TGI [28] was > 100 µM, the TGI [29] was > 100 µM and the TGI [30] was > 100 µM. The TGI [31] was > 100 µM, the TGI [32] was > 100 µM and the TGI [33] was > 100 µM. For the same compound, the TGI [34] was > 100 µM, the TGI [35] was > 100 µM and the TGI [36] was > 100 µM. For the same compound, the TGI [37] was > 100 µM, the TGI [38] was > 100 µM and the TGI [39] was > 100 µM. For the same compound, the TGI [40] was > 100 µM, the TGI [41] was > 100 µM and the TGI [42] was > 100 µM. The TGI [43] was > 100 µM, the TGI [44] was > 100 µM and the TGI [45] was > 100 µM. The TGI [46] was > 100 µM, the TGI [47] was > 100 µM and the TGI [48] was > 100 µM. For the same compound, the TGI [49] was > 100 µM, the TGI [50] was > 100 µM and the TGI [51] was > 100 µM. The TGI [52] was > 100 µM.
For `CC(=O)CC(=O)/C=C/c1cccs1`, the TGI [53] was > 100 µM, the TGI [1] was > 100 µM and the TGI [2] was > 100 µM. For the same compound, the TGI [3] was > 100 µM, the TGI [54] was > 100 µM and the TGI [4] was > 100 µM. The TGI [5] was > 100 µM, the TGI [6] was > 100 µM and the TGI [7] was > 100 µM. The TGI [9] was > 100 µM, the TGI [11] was > 100 µM and the TGI [12] was > 100 µM. For the same compound, the TGI [13] was 72.5 µM, the TGI [55] was > 100 µM and the TGI [16] was > 100 µM. For the same compound, the TGI [17] was > 100 µM, the TGI [18] was > 100 µM and the TGI [19] was > 100 µM. For the same compound, the TGI [20] was > 100 µM, the TGI [21] was > 100 µM and the TGI [22] was > 100 µM. The TGI [23] was > 100 µM, the TGI [24] was > 100 µM and the TGI [25] was > 100 µM. The TGI [26] was > 100 µM, the TGI [56] was > 100 µM and the TGI [27] was > 100 µM. The TGI [28] was > 100 µM, the TGI [29] was > 100 µM and the TGI [30] was > 100 µM. The TGI [57] was > 100 µM, the TGI [31] was > 100 µM and the TGI [32] was > 100 µM. The TGI [58] was > 100 µM, the TGI [34] was > 100 µM and the TGI [35] was > 100 µM. For the same compound, the TGI [36] was > 100 µM, the TGI [37] was > 100 µM and the TGI [39] was > 100 µM. The TGI [40] was > 100 µM, the TGI [41] was > 100 µM and the TGI [42] was > 100 µM. For the same compound, the TGI [45] was > 100 µM, the TGI [46] was > 100 µM and the TGI [47] was > 100 µM. For the same compound, the TGI [48] was > 100 µM, the TGI [49] was > 100 µM and the TGI [50] was > 100 µM. For the same compound, the TGI [51] was > 100 µM.
For `N=C(N)SCCc1ccccn1`, the TGI [53] was > 100 µM, the GI50 [1] was 37.8 µM and > 100 µM and the TGI [1] was > 100 µM. For the same compound, the TGI [2] was > 100 µM, the TGI [3] was > 100 µM and the TGI [59] was > 100 µM. For the same compound, the TGI [54] was > 100 µM, the TGI [4] was > 100 µM and the TGI [5] was > 100 µM. For the same compound, the TGI [60] was > 100 µM, the TGI [9] was > 100 µM and the TGI [10] was > 100 µM. For the same compound, the TGI [11] was > 100 µM, the TGI [12] was > 100 µM and the TGI [13] was > 100 µM. For the same compound, the TGI [55] was > 100 µM, the TGI [15] was > 100 µM and the TGI [61] was > 100 µM. For the same compound, the TGI [16] was > 100 µM, the TGI [17] was > 100 µM and the TGI [18] was > 100 µM. For the same compound, the TGI [19] was > 100 µM, the TGI [21] was > 100 µM and the TGI [23] was > 100 µM. For the same compound, the TGI [25] was > 100 µM, the TGI [62] was > 100 µM and the TGI [63] was > 100 µM. The TGI [64] was > 100 µM, the TGI [65] was > 100 µM and the TGI [26] was > 100 µM. For the same compound, the TGI [56] was > 100 µM, the GI50 [27] was 35.5 µM and > 100 µM and the TGI [27] was > 100 µM. The TGI [28] was > 100 µM, the TGI [29] was > 100 µM and the TGI [66] was > 100 µM. The TGI [30] was > 100 µM, the TGI [57] was > 100 µM and the TGI [31] was > 100 µM. The TGI [32] was > 100 µM, the TGI [67] was > 100 µM and the TGI [58] was > 100 µM. For the same compound, the TGI [33] was > 100 µM, the TGI [34] was > 100 µM and the TGI [35] was > 100 µM. The TGI [36] was > 100 µM, the TGI [37] was > 100 µM and the TGI [38] was > 100 µM. For the same compound, the TGI [39] was > 100 µM, the TGI [40] was > 100 µM and the TGI [41] was > 100 µM. The TGI [42] was > 100 µM, the GI50 [43] was 39.7 µM and > 100 µM and the TGI [43] was > 100 µM. The TGI [45] was > 100 µM, the TGI [46] was > 100 µM and the TGI [68] was > 100 µM. For the same compound, the TGI [47] was > 100 µM, the TGI [48] was > 100 µM and the TGI [49] was > 100 µM. The TGI [50] was > 100 µM and the TGI [51] was > 100 µM.
